Results published in PMC6556873, “Rapid Covalent-Probe Discovery by Electrophile-Fragment Screening” (Journal of the American Chemical Society, 2019).
Read-outs that look alike come from different tables or passages of the source.

How the values were obtained:
[1] = biological target: T1, BSA (Bos taurus, UniProt P02769); design: Intact protein LC/MS covalent labelling, fragments in pools of five, 200 uM each, 4 °C; conditions: 24 h, 4 °C, pool of five; 200 µM; covalent
T1 construct: gene ALB

[2] = biological target: T2, NNMT (hNNMT) (Homo sapiens, UniProt P40261); design: Intact protein LC/MS covalent labelling, fragments in pools of five, 200 uM each, 4 °C; conditions: 24 h, 4 °C, pool of five; 200 µM; covalent
T2 construct: wild type, N-terminal His6 tag kept (no cleavage described), E. coli, construct 31248 Da
T2 sequence (P40261 1-264): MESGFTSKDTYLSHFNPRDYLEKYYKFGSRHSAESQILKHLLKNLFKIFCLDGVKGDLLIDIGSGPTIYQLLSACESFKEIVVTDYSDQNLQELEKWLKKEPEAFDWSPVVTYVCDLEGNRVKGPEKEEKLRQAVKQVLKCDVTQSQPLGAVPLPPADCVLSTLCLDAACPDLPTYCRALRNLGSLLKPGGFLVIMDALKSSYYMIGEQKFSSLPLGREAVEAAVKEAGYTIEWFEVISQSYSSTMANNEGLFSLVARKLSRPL

[3] = biological target: T3, NUDT7 (Homo sapiens, UniProt P0C024); design: Intact protein LC/MS covalent labelling, fragments in pools of five, 200 uM each, 4 °C; conditions: 24 h, 4 °C, pool of five; 200 µM; covalent
T3 construct: residues 14-235, E. coli, pNIC28-Bsa4, N-terminal His6 tag removed by TEV, construct 26672 Da
T3 sequence (P0C024 14-235): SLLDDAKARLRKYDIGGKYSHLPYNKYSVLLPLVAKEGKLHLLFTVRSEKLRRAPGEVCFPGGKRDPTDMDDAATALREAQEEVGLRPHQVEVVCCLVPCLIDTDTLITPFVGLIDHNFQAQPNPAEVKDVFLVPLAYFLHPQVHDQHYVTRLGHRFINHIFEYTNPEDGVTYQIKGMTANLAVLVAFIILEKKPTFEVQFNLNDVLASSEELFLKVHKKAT

[4] = biological target: T4, OTUB2 (OTUB2A) (Homo sapiens, UniProt Q96DC9); design: Intact protein LC/MS covalent labelling, fragments in pools of five, 200 uM each, 4 °C; conditions: 24 h, 4 °C, pool of five; 200 µM; covalent
T4 construct: full length residues 1-234, E. coli BL21(DE3)-R3, His tag removed by TEV, construct 27312 Da
T4 sequence (Q96DC9 1-234): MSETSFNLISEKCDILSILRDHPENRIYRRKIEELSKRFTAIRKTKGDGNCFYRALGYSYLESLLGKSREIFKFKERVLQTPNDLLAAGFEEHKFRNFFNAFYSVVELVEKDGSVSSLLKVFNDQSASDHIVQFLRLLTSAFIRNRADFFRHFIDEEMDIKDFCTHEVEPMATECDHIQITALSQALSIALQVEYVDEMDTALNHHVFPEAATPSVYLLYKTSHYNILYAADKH

[5] = biological target: T5, PCAF (Homo sapiens, UniProt Q92831); design: Intact protein LC/MS covalent labelling, fragments in pools of five, 200 uM each, 4 °C; conditions: 24 h, 4 °C, pool of five; 200 µM; covalent
T5 construct: gene KAT2B
T5 sequence (Q92831 whole entry, the tested form may be a part): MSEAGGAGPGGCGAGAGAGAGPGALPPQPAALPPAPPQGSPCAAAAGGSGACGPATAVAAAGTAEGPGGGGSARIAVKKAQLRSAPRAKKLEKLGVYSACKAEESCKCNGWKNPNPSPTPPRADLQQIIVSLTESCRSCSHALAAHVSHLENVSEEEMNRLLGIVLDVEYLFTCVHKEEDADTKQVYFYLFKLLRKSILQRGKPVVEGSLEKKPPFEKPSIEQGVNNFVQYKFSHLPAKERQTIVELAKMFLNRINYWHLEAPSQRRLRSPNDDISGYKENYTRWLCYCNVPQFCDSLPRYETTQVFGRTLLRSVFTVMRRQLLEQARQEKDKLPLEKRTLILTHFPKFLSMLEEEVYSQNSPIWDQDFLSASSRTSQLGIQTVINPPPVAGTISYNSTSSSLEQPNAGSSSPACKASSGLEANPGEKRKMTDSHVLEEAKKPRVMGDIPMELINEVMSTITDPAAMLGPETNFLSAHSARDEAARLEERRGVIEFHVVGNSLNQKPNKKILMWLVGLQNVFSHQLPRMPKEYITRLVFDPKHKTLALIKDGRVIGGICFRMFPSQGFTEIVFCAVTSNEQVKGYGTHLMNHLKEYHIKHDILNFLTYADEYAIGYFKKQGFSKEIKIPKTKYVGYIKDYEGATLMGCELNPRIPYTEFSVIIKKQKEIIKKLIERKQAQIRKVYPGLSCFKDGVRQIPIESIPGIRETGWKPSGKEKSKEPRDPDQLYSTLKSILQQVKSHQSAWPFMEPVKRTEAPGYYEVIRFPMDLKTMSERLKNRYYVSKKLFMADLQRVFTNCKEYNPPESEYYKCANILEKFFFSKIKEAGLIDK

[6] = in vitro; design: species or system CCD841, HEK293; conditions: human, hb2 cells, read-out: HB-2 Cells Viability (%)
[7] = in vitro; design: species or system HB2, HEK293; conditions: human, ccd841 cells
[8] = in vitro; design: species or system HB2, CCD841; conditions: human, hek293 cells

T1 sequence (P02769 whole entry, the tested form may be a part): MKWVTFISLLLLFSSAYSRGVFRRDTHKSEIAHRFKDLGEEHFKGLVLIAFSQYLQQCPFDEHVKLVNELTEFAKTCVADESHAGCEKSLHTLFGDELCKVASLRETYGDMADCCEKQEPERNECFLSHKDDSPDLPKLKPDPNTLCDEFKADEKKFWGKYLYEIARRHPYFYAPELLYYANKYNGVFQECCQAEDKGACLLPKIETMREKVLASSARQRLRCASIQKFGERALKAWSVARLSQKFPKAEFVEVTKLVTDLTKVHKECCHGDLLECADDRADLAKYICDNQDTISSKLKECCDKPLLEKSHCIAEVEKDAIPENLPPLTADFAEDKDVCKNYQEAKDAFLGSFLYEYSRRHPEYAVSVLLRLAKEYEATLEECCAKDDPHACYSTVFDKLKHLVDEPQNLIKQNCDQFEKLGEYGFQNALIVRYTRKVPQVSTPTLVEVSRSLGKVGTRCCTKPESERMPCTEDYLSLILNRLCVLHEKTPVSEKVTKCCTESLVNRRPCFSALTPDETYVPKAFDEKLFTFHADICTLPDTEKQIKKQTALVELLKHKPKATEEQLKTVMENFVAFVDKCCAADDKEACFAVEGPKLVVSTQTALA

SMILES	BSA [1]	NNMT [2]	NUDT7 [3]	OTUB2 [4]	PCAF [5]	viability at 48 h, 10 µM [6] [%]	viability at 48 h, 10 µM [7] [%]	viability at 48 h, 10 µM [8] [%]
C=CC(=O)NC1CCC(c2nc(C)no2)CC1 (centres unmarked) [PCM-0102521]	0	0	0	0.35	0	101	116	83
C=CC(=O)NC1CCCN(c2cc(C)nn2C)C1=O (centres unmarked) [PCM-0102991]	0	0	0	0	0	98.2	113	94.5
Cc1ccc(CNC(=O)CCl)cc1 [PCM-0102660]	0	0	0	0.63	0	87.4	80.3	93.6
CN(Cc1ccc(Cl)s1)C(=O)CCl [PCM-0102898]	0	0.47	0.29	0	0	11	46.5	7.8
C=CC(=O)N1CCCCC1c1ccc(C(=O)NC)n1C (centres unmarked) [PCM-0102610]	0	0.14	0	0	0	106	112	99.3
CC1(C)C2CCC1(C)C(NC(=O)CCl)C2 (centres unmarked) [PCM-0102315]	0.12	0	0	0	0	84.4	95	75.9
COc1ccc(C(=O)NC(=O)CCl)cc1 [PCM-0102454]	0	0.36	0	0	0	97.1	103	96.7
C=CC(=O)N1CC(S(=O)(=O)CC)C1 [PCM-0102442]	0	0.14	0	0	0	94.8	100	77.7
C=CC(=O)N1CCCC(c2ncc(C(F)(F)F)[nH]2)C1 (centres unmarked) [PCM-0102527]	0.09	0	0	0	0	98.6	129	109
O=C(CCl)Nc1cccc(Cl)c1Cl [PCM-0102797]	0	0	0.15	0	0	44.2	72.2	40.9
C=CC(=O)N1CCC(c2noc(C3CC3)n2)CC1 [PCM-0102810]	0	0	0.06	0	0	103	103	94.1
Cc1ccc(NC(=O)NC(=O)CCl)cc1 [PCM-0102623]	0	0.71	0.11	0	0	69.1	82.5	80.6
C=CC(=O)Nc1ccc(C(=O)O)cc1 [PCM-0102271]	0	0	0	0	0	111	94.2	95.1
CNC(=O)NC(=O)CCl [PCM-0102534]	0	0	0	0	0	97.9	94.3	92.2
COC(=O)c1cc(Cl)cc(Cl)c1NC(=O)CCl [PCM-0102912]	0.11	0.11	0.17	0	0	97	90.6	106
C=CC(=O)NC1(C(N)=O)CCCOC1 (centres unmarked) [PCM-0102608]	0	0	0	0	0	107	107	118
C=CC(=O)Nc1ccc(N2CCCC2=O)cc1 [PCM-0102145]	0	0.14	0	0	0	101	125	91.4
COc1cc(=O)[nH]c(NC(=O)CCl)n1 [PCM-0102873]	0.17	0	0	0	0	99.9	100	114
C=CC(=O)N1CCCCC1c1cnn(C)c1 (centres unmarked) [PCM-0102675]	0	0	0.1	0	0	95.7	103	88.5
NS(=O)(=O)c1ccc(NC(=O)CCl)cc1 [PCM-0102807]	0	0	0	0.29	0	53.8	56.9	8
CC1CCCN(C(=O)CCl)C1 (centres unmarked) [PCM-0102867]	0	0	0	0	0	102	104	103
Cc1ccc([N+](=O)[O-])c(NC(=O)CCl)c1C [PCM-0102511]	0	0	0.15	0.07	0	91.5	75.4	56.3
COc1ccc(C2=CCN(C(=O)CCl)CC2)cc1 [PCM-0102929]	0	0.22	0.45	0	0	59.4	90.4	71
CN1C(=O)c2ccc(NC(=O)CCl)cc2C1=O [PCM-0102309]	0	0	0.12	0.19	0	52.5	61.2	67.2
O=C(CCl)NCc1ccccc1F [PCM-0102149]	0	0	0	0.62	0	86.4	63.7	71.3
